Where two headings read alike, the source gives them in different places.
Columns and labels:
[1] = Liver Microsome Stability Assay (rat); details: rat liver microsomes, with NADPH, 1.0 uM compound
Experimental: (§1) Stability of a compound was assessed in the presence of liver microsomes from various sources—mouse, rat, monkey and human liver microsomes. 1.0 uM compound, 0.4% DMSO in 0.1 M Potassium Phosphate with 1.0 mg/mL liver microsomes, were incubated at 37° C. with or without 1 mM NADPH. The samples were quenched at 0, and 30 minutes.

[2] = system: PD1-ss+10aa/Gaussia Luciferase; assay: Dox-Induced PD1-ss-Gluc Assay; type: cell-based; details: 24 hr Dox induction, 293FRT/TO cells, read-out: 24 hr Dox Inducible PD1ssGluc 293FRT/TO: Mean IC50
How it was run: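 Doxycycline-induced expression of a PD1-ss+10aa/Gaussia luciferase reporter is measured in stable Flp-In 293 T-REx cells. Compound dilutions containing doxycycline are added one day after plating and incubated at 37 °C, 5% CO2. Values for unassigned stereocentres refer to stereoisomer mixtures.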

[3] = system: HER3-ss+4aa/Gaussia Luciferase; assay: Dox-Induced Her3-ss-Gluc Assay; type: cell-based; details: 24 hr Dox induction, 293FRT/TO cells, read-out: 24 hr Dox Inducible Her3(ss + 4)Gluc 293FRT/TO: Mean IC50
How it was run: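 Expression of a Gaussia luciferase reporter carrying the HER3 signal sequence plus 4 amino acids is induced by doxycycline in stably transfected Flp-In 293 T-REx cells. Compounds are added with doxycycline at 37° C., 5% CO2. Undefined stereocentres denote stereoisomer mixtures.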

[4] = system: IL-2-FL/Gaussia Luciferase; assay: Dox Induced IL2-FL-Gluc Assay; type: cell-based; details: for IC50: 24 hr Dox induction, 293FRT/TO cells, read-out: 24 hr Dox Inducible IL2FLGluc 293FRT/TO: Mean IC50; for 24 hr Dox Inducible IL2FLGluc 293FRT/TO: IL2/PD1: ratio of IL2FLGluc IC50 to PD1ssGluc IC50
How it was run: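 Reporter is Gaussia luciferase fused to the 3′ end of full-length IL-2 (aa 1-153), expressed from a doxycycline-inducible T-REx construct in stably selected Flp-In 293 cells. Compounds were co-added with doxycycline and incubated at 37° C, 5% CO2.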

[5] = system: TNFα-FL/Gaussia Luciferase; assay: Dox Induced TNFα-FL-Gluc Assay; type: cell-based; details: for IC50: 24 hr Dox induction, 293FRT/TO cells, read-out: 24 hr Dox Inducible TNFaFLGluc 293FRT/TO: Mean IC50; for 24 hr Dox Inducible TNFaFLGluc 293FRT/TO: TNF/PD1: ratio of TNFaFLGluc IC50 to PD1ssGluc IC50
How it was run: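 Cells are seeded one day ahead, then treated with compound plus doxycycline at 37 °C, 5% CO2. The stable Flp-In 293 T-REx line expresses full-length TNFα (amino acids 1-233) with Gaussia luciferase fused to its 3′ end, inducibly via T-REx.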

[6] = Liver Microsome Stability Assay (mouse); details: mouse liver microsomes, with NADPH, 1.0 uM compound
Experimental: as §1

[7] = Liver Microsome Stability Assay (monkey); details: monkey liver microsomes, with NADPH, 1.0 uM compound
Experimental: as §1

[8] = system: multiple myeloma cell line U266B1; assay: U266 Cell Viability Assay; type: cell-based, human; details: Homo sapiens, U-266, 48 h, U266B1 cells, Celltiter-Glo
How it was run: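 48 h treatment, 37° C./5% CO2, RPMI 1640 + 10% FBS; viability by CellTiter-Glo luminescence.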

[9] = system: multiple myeloma cell line NCI-H929; assay: H929 Cell Viability Assay; type: cell-based, human; details: Homo sapiens, NCI-H929, 48 h, NCI-H929 cells, Celltiter-Glo
How it was run: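 Plate the myeloma cells in RPMI 1640 with 10% FBS, add serially diluted compound, incubate for 48 hours at 37° C, then add CellTiter-Glo and read luciferase signal.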

[10] = Liver Microsome Stability Assay (human); details: human liver microsomes, with NADPH, 1.0 uM compound
Experimental: as §1

[11] = '<=>' given where both are I.A.

Structure (SMILES) | Liver Microsome Stability (Multiple Species): Rat - % Remaining after 30 min w/NADPH [1] | IC50 [2] | IC50 [3] | IC50 [4] | IC50 [5] | Liver Microsome Stability (Multiple Species): Mouse - % Remaining after 30 min w/NADPH [6] | Liver Microsome Stability (Multiple Species): Monkey - % Remaining after 30 min w/NADPH [7] | EC50 [8] | EC50 [9] | Liver Microsome Stability (Multiple Species): Human - % Remaining after 30 min w/NADPH [10] | IC50 ([2]; mean) | IC50 ([3]; mean) | IC50 ([4]; mean) | IC50 ([5]; mean) | 24 hr Dox Inducible IL2FLGluc 293FRT/TO: IL2/PD1 [4] | 24 hr Dox Inducible TNFaFLGluc 293FRT/TO: TNF/PD1 [5] | 24 hr Dox Inducible IL2FLGluc 293FRT/TO: IL2/PD1 [4, 11] | 24 hr Dox Inducible TNFaFLGluc 293FRT/TO: TNF/PD1 [5, 11]
NC(=O)Cn1cnc(/C=C/c2csc(NC(=O)c3cccn3Cc3ccnc(F)c3)n2)c1 [Compound B115] | 30% | > 25 µM | > 25 µM | > 25 µM | > 25 µM | 70.7% | 11.5% | > 25 µM | > 25 µM | 12.8% |  |  |  |  | <=>1.0 | <=>1.00 |  | 
O=C(Nc1nc([C@@H]2CCCN(c3ccccn3)C2)cs1)c1cccn1Cc1ccncc1 [Compound E47, (R)-N-(4-(1-(pyridin-2-yl)piperidin-3-yl)thiazol-2-yl)-1-(pyridin-4-ylmethyl)-1H-pyrrole-2-carboxamide] | 2.13% |  |  |  |  | 0.55% | 5.23% | 13.9 µM | 10.4 µM | 0.57% | 0.547 µM | 1.43 µM | 1.44 µM | 4.06 µM |  |  | 2.6 | 7.43
O=C(Nc1nc(/C=C/c2ncc(F)cc2F)cs1)c1cccn1CC1CCOCC1 [Compound D2, (E)-N-(4-(2-(3,5-difluoropyridin-2-yl)vinyl)thiazol-2-yl)-1-((tetrahydro-2H-pyran-4-yl)methyl)-1H-pyrrole-2-carboxamide] | 0.39% |  |  |  |  | 2.76% | 0.23% | > 25 µM | > 23.9 µM | 5.79% | 0.397 µM | 1.5 µM | > 13.5 µM | 6.09 µM |  |  | >34 | 15.3
O=C(Nc1nc([C@H]2CCN(c3ccccn3)C2)cs1)c1cccn1Cc1ccncc1 [Compound E44, (S)-N-(4-(1-(pyridin-2-yl)pyrrolidin-3-yl)thiazol-2-yl)-1-(pyridin-4-ylmethyl)-1H-pyrrole-2-carboxamide] | 0.72% |  |  |  |  | 0.24% | 0.59% | > 25 µM | 22.9 µM | 0.5% | 0.453 µM | 1.32 µM | 2.72 µM | 11.6 µM |  |  | 6 | 25.5
Cc1ccc(/C=C/c2csc(NC(=O)c3cccn3CC3CCOCC3)n2)nc1F [Compound D3, (E)-N-(4-(2-(6-fluoro-5-methylpyridin-2-yl)vinyl)thiazol-2-yl)-1-((tetrahydro-2H-pyran-4-yl)methyl)-1H-pyrrole-2-carboxamide] | 0.26% |  |  |  |  | 0.46% | 0.09% | > 17.8 µM | 10.2 µM | 0.24% | 0.734 µM | 2 µM | 6.66 µM | > 25 µM |  |  | 9.1 | >34.1

Continued, in another order:

Liver Microsome Stability (Multiple Species): Rat - % Remaining after 30 min w/NADPH [1] | IC50 [2] | IC50 [3] | IC50 [4] | IC50 [5] | Liver Microsome Stability (Multiple Species): Mouse - % Remaining after 30 min w/NADPH [6] | Liver Microsome Stability (Multiple Species): Monkey - % Remaining after 30 min w/NADPH [7] | EC50 [8] | EC50 [9] | Liver Microsome Stability (Multiple Species): Human - % Remaining after 30 min w/NADPH [10] | IC50 ([2]; mean) | IC50 ([3]; mean) | IC50 ([4]; mean) | IC50 ([5]; mean) | Structure (SMILES) | 24 hr Dox Inducible IL2FLGluc 293FRT/TO: IL2/PD1 [4] | 24 hr Dox Inducible TNFaFLGluc 293FRT/TO: TNF/PD1 [5] | 24 hr Dox Inducible IL2FLGluc 293FRT/TO: IL2/PD1 [4, 11] | 24 hr Dox Inducible TNFaFLGluc 293FRT/TO: TNF/PD1 [5, 11]
0.45% | 0.00958 µM | 0.0155 µM | 0.0212 µM | 0.303 µM | 6.21% | 8.34% | > 25 µM | 0.398 µM | 15.7% |  |  |  |  | COc1cc(N2CCC[C@@H]2c2csc(NC(=O)c3cccn3Cc3ccnc(F)c3)n2)ccc1OC1CCN(C(C)=O)CC1 [Compound A129, (R)-N-(4-(1-(4-((1-acetylpiperidin-4-yl)oxy)-3-methoxyphenyl)pyrrolidin-2-yl)thiazol-2-yl)-1-((2-fluoropyridin-4-yl)methyl)-1H-pyrrole-2-carboxamide] | 2.2 | 31.6 |  | 
2.73% |  |  |  |  | 6.44% | 0.39% | 14.6 µM | 3.98 µM | 0.93% | 0.0442 µM | 0.109 µM | 0.0975 µM | 0.984 µM | O=C(Nc1nc([C@H]2CCCN2c2ccccc2)cs1)c1cccn1Cc1ccnnc1 [Compound C102, (R)-N-(4-(1-phenylpyrrolidin-2-yl)thiazol-2-yl)-1-(pyridazin-4-ylmethyl)-1H-pyrrole-2-carboxamide] |  |  | 2.2 | 22.2
0.82% |  |  |  |  | 4.94% | 0.09% | > 25 µM | 6.16 µM | 3.01% | 0.143 µM | 0.35 µM | 0.413 µM | 2.41 µM | CC(=O)NCc1ccc(N2CCC[C@@H]2c2csc(NC(=O)c3cccn3CC3CCOCC3)n2)cc1 [Compound C104, (R)-N-(4-(1-(4-(acetamidomethyl)phenyl)pyrrolidin-2-yl)thiazol-2-yl)-1-((tetrahydro-2H-pyran-4-yl)methyl)-1H-pyrrole-2-carboxamide] |  |  | 2.9 | 16.8
0.39% |  |  |  |  | 0.46% | 0.06% | > 25 µM | > 25 µM | 0.37% | 5.76 µM | 4.93 µM | 5.41 µM | > 25 µM | O=C(Nc1nc([C@H]2CCCN2c2ccccc2)cs1)c1cccn1CCCc1cccnc1 [Compound E10, (R)-N-(4-(1-phenylpyrrolidin-2-yl)thiazol-2-yl)-1-(3-(pyridin-3-yl)propyl)-1H-pyrrole-2-carboxamide] |  |  | 0.94 | >4.34
